# Measurements reported in US8486962B2, “Antifungal agents” (F2G Ltd., priority 2005, dated 2013).
# Like-named read-outs stand apart in the source and are kept apart here.
# Assays:
# Aspergillus flavus = experiment: MIC, YAG medium, Aspergillus flavus; assay type: cell-based; details: YAG medium; for MIC: Aspergillus flavus
# In short: (§1)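 Yeast: RPMI + 2% glucose + 0.135M MOPS pH7.0, 1-2×10^3 cfu/ml, 35° C 24-48 h, OD485, MIC at >80% inhib. Aspergillus: YAG (1% glucose, 1% NH4Cl, 0.5% yeast extract), spores 1-2×10^4 cfu/ml, 35° C 24 h, MIC at >70% inhib. Range 50-0.05 mg/L.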
# [1] = system: Aspergillus fumigatus AF293; experiment: MIC, YAG medium, Aspergillus fumigatus AF293; assay type: cell-based; details: YAG medium; for MIC: Aspergillus fumigatus, AF293, read-out: MIC A Fum. 293
# In short: as §1
# Aspergillus niger = experiment: MIC, YAG medium, Aspergillus niger; assay type: cell-based; details: YAG medium; for MIC: Aspergillus niger
# In short: as §1
# Aspergillus terreus = experiment: MIC, YAG medium, Aspergillus terreus; assay type: cell-based; details: YAG medium; for MIC: Aspergillus terreus
# In short: as §1
# [2] = system: Aspergillus fumigatus AF210; experiment: MIC, YAG medium, Aspergillus fumigatus AF210; assay type: cell-based; details: YAG medium; for MIC: Aspergillus fumigatus, AF210, read-out: MIC A Fum. 210
# In short: as §1
# A Terreus 49 = experiment: MIC, YAG medium, A Terreus 49; assay type: cell-based, Aspergillus terreus; details: YAG medium; for MIC: Aspergillus terreus, read-out: MIC A Terreus 49
# In short: as §1
Compound,MIC (Aspergillus flavus; read-out: MIC A Flavus 01) [µg/mL],MIC [1] [µg/mL],MIC (Aspergillus niger; read-out: MIC A Niger 1) [µg/mL],MIC (Aspergillus terreus; read-out: MIC A Terreus 4) [µg/mL],MIC [2] [µg/mL],MIC (A Terreus 49) [µg/mL],MIC (Aspergillus flavus; read-out: MIC A Flavus) [µg/mL],MIC (Aspergillus niger; read-out: MIC A Niger) [µg/mL],MIC (Aspergillus terreus; read-out: MIC A Terreus) [µg/mL],MIC A Flavus 01 (Aspergillus flavus) [µg/mL],MIC A Fum. 293 [1] [µg/mL],MIC A Niger 1 (Aspergillus niger) [µg/mL],MIC A Terreus 4 (Aspergillus terreus) [µg/mL],MIC A Fum. 210 [2] [µg/mL],MIC A Terreus 49 (A Terreus 49) [µg/mL]
"CN(C)Cc1ccc(NC(=O)C(=O)c2c(-c3ccccc3)cc3ccccn23)cc1 [Example 278, N-(4-Dimethylaminomethyl-phenyl)-2-oxo-2-(2-phenyl-indolizin-3-yl)-acetamide]",6.25,25,25,6.25,12.5,12.5,–,–,–,–,–,–,–,–,–
"CC(=O)c1cccc(NC(=O)C(=O)c2c(-c3ccccc3)cc3ccccn23)c1 [Example 267, N-(3-Acetyl-phenyl)-2-oxo-2-(2-phenyl-indolizin-3-yl)-acetamide]",0.05,0.4,0.4,0.1,0.8,0.05,–,–,–,–,–,–,–,–,–
"N#Cc1cccc(-c2cc3ccccn3c2C(=O)C(=O)Nc2ccc(F)cc2F)c1 [Example 245, 2-[2-(3-Cyano-phenyl)-indolizin-3-yl]-N-(2,4-difluoro-phenyl)-2-oxo-acetamide]",0.8,6.25,0.4,0.4,6.25,0.8,–,–,–,–,–,–,–,–,–
"Cc1ccc(Cl)cc1NC(=O)C(=O)c1c(-c2ccccc2)cc2ccccn12 [Example 246, N-(5-Chloro-2-methyl-phenyl)-2-oxo-2-(2-phenyl-indolizin-3-yl)-acetamide]",0.031,0.12,0.062,0.008,0.25,0.004,–,–,–,–,–,–,–,–,–
"Cc1ncccc1-c1cc2ccccn2c1C(=O)C(=O)Nc1ccc(OCC(F)(F)C(F)F)cc1 [Example 283, 2-[2-(2-Methyl-pyridin-3-yl)-indolizin-3-yl]-2-oxo-N-[4-(2,2,3,3-tetrafluoro-propoxy)-phenyl]-acetamide]",0.015,0.2,0.05,0.1,0.2,0.05,–,–,–,–,–,–,–,–,–
"COc1ccc(NC(=O)C(=O)c2c(-c3cccs3)cc3ccccn23)cn1 [Example 167, N-(6-Methoxy-pyridin-3-yl)-2-oxo-2-(2-thiophen-2-yl-indolizin-3-yl)-acetamide]",0.062,1.6,0.5,0.25,1.6,0.062,–,–,–,–,–,–,–,–,–
"CN(C)c1ccc(NC(=O)C(=O)c2c(-c3ccccc3)cc3ccccn23)cn1 [Example 229, N-(6-Dimethylamino-pyridin-3-yl)-2-oxo-2-(2-phenyl-indolizin-3-yl)-acetamide]",0.031,0.5,0.12,0.12,0.5,0.062,–,–,–,–,–,–,–,–,–
"Cc1cc(NC(=O)C(=O)c2c(-c3ccccc3)cc3ccccn23)ccc1N(C)C [Example 273, N-(4-Dimethylamino-3-methyl-phenyl)-2-oxo-2-(2-phenyl-indolizin-3-yl)-acetamide]",0.004,0.062,0.12,0.004,0.031,0.002,–,–,–,–,–,–,–,–,–
"CCCN(CCC)c1ccc(NC(=O)C(=O)c2c(-c3ccccc3)cc3ccccn23)cn1 [Example 289, N-(6-Dipropylamino-pyridin-3-yl)-2-oxo-2-(2-phenyl-indolizin-3-yl)-acetamide]",0.004,0.05,0.004,0.008,0.05,0.008,–,–,–,–,–,–,–,–,–
"O=C(Nc1cccc(C(F)(F)F)c1)C(=O)c1c(-c2ccccc2)cc2ccccn12 [Example 306, 2-Oxo-2-(2-phenyl-indolizin-3-yl)-N-(3-trifluoromethyl-phenyl)-acetamide]",–,0.12,–,–,0.062,0.002,0.008,0.015,0.004,–,–,–,–,–,–
"O=C(Nc1ccc(F)cc1F)C(=O)c1c(-c2cccc(F)c2)cc2ccccn12 [Example 244, N-(2,4-Difluoro-phenyl)-2-[2-(3-fluoro-phenyl)-indolizin-3-yl]-2-oxo-acetamide]",0.2,> 50,0.05,0.2,> 50,0.1,–,–,–,–,–,–,–,–,–
"Cc1ccc(NC(=O)C(=O)c2c(-c3cccs3)cc3ccccn23)cc1 [Example 165, 2-Oxo-2-(2-thiophen-2-yl-indolizin-3-yl)-N-p-tolyl-acetamide]",0.062,0.8,0.25,0.06,1.6,0.062,–,–,–,–,–,–,–,–,–
"CN(C)c1ccc(NC(=O)C(=O)c2c(-c3ccccc3)cc3ccccn23)cc1 [Example 203, N-(4-Dimethylamino-phenyl)-2-oxo-2-(2-phenyl-indolizin-3-yl)-acetamide]",0.008,0.06,0.031,0.015,0.062,0.008,–,–,–,–,–,–,–,–,–
2-Oxo-2-(2-pyridin-3-yl-indolizin-3-yl)-N-(3-trifluoromethyl-phenyl)-acetamide [Example 223],–,–,–,–,–,–,–,–,–,0.062,0.5,0.5,0.12,0.25,0.031
"COc1ccc(NC(=O)C(=O)c2c(-c3ccc(F)cc3)cc3ccccn23)cc1 [Example 155, 2-[2-(4-Fluoro-phenyl)-indolizin-3-yl]-N-(4-methoxy-phenyl)-2-oxo-acetamide]",0.03,0.5,0.12,0.031,0.12,0.008,–,–,–,–,–,–,–,–,–
"C[S+]1CCN(c2ccc(NC(=O)C(=O)c3c(-c4ccccc4)cc4ccccn34)cc2)CC1.[I-] [Example 299, 1-Methyl-4-{4-[2-oxo-2-(2-phenyl-indolizin-3-yl)-acetylamino]-phenyl}-thiomorpholin-1-ium iodide]",3.1,6.25,12.5,3.1,6.25,1.6,–,–,–,–,–,–,–,–,–
"COC(=O)c1cccc(NC(=O)C(=O)c2c(-c3ccccc3)cc3ccccn23)c1 [Example 141, 3-[2-Oxo-2-(2-phenyl-indolizin-3-yl)-acetylamino]-benzoic acid methyl ester]",0.008,0.12,0.25,0.031,0.12,0.015,–,–,–,–,–,–,–,–,–
"Cc1ccccc1-c1cc2ccccn2c1C(=O)C(=O)Nc1ccc(OCC(F)(F)C(F)F)nc1 [Example 286, 2-Oxo-N-[6-(2,2,3,3-tetrafluoro-propoxy)-pyridin-3-yl]-2-(2-o-tolyl-indolizin-3-yl)-acetamide]",0.015,0.1,0.015,0.1,0.1,0.015,–,–,–,–,–,–,–,–,–
"COc1ccc(NC(=O)C(=O)c2c(-c3ccccc3C)cc3ccccn23)cc1 [Example 232, N-(4-Methoxy-phenyl)-2-oxo-2-(2-o-tolyl-indolizin-3-yl)-acetamide]",0.015,0.062,0.008,0.031,0.062,0.015,–,–,–,–,–,–,–,–,–
"CC(=O)c1ccc(NC(=O)C(=O)c2c(-c3ccccc3)cc3ccccn23)cc1 [Example 205, N-(4-Acetyl-phenyl)-2-oxo-2-(2-phenyl-indolizin-3-yl)-acetamide]",0.062,0.5,0.062,0.031,0.5,0.062,–,–,–,–,–,–,–,–,–
"O=C(Nc1ccc(-c2ncco2)cc1)C(=O)c1c(-c2ccccc2)cc2ccccn12 [Example 268, N-(4-Oxazol-2-yl-phenyl)-2-oxo-2-(2-phenyl-indolizin-3-yl)-acetamide]",0.03,0.1,0.015,0.015,0.06,0.015,–,–,–,–,–,–,–,–,–
